Measurements: patent US8877766B2, “Neuroprotective multifunctional antioxidants and their monofunctional analogs” (priority 2013, dated 2014)

What was measured:
[1] = test system: SH-SY5Y neuroblastoma cells; experiment: Superoxide assay, MitoSOX Red, xanthine oxidase generated superoxide; type: cell-based, human; conditions: xanthine oxidase 25 mU/mL
Description: The ability of the HK series of multifunctional and monofunctional antioxidant compounds to specifically reduce superoxide radicals in live cells was assessed in both SH-SY5Y neuroblastoma cells and ARPE-19 retinal pigmented epithelial cells. The production of superoxide by mitochondria was visualized with fluorescence microscopy using the MitoSOX™ Red reagent (Invitrogen Life Sciences, Grand Island, N.Y.), which permeates live cells, where it selectively targets mitochondria. It is rapidly oxidized by superoxide, but not by other reactive oxygen species (ROS) and reactive nitrogen species (RNS). The oxidized product is highly fluorescent upon binding to nucleic acid. […] The cell media was then removed from each well, and the wells were washed with PBS. Compounds (HK series and JHX series and antioxidant standards (Hydroquinone (HQ), Trolox (T), Vitamin E (VE), Vitamin C (VC)) dissolved in DMSO (10 μL) were then added to each well, along with fresh media (140 μL) without serum albumin (FBS). Superoxide dismutase (SOD, 500 μg/mL, 10 μL) was used as an additional control, and cells in all groups (controls, drug treated, and SOD treated groups) were exposed to the same amounts of DMSO. After addition, the cells were incubated at 37° C. under a 5% CO2 atmosphere for 1 hr. Xanthine oxidase (XO), was then added (25 mU/mL) to generate approximately 100 μM superoxide, and culture continued for an additional hour. The media was then again removed, and the cells were washed with PBS. Finally, the cells were stained with 100 μL of the MitoSOX Red reagent (5 μM), and 2 hr after further incubation, the fluorescence of each well was measured using fluorescent microplate reader at Ex/Em=510/580 nm.

[2] = test system: SH-SY5Y neuroblastoma cells; experiment: Cell viability study, MTS Cell Titer 96 Aqueous One Solution assay; conditions: 1 mM compound in 0.16% DMSO
Description: (§5) The in vitro cell viability studies were conducted as previously described using SH-SY5Y neuroblastoma cells (ATCC) and cultured according to ATCC procedures in 1:1 Eagles minimum essential medium with Earle's balanced salt solution and Ham's F12 (EMEM-F12) media containing (10% fetal bovine serum (FBS)) at 37° C. under a 5% CO2 atmosphere. Cell viability studies were conducted over a 24 hour period in 96-well plates using the Cell Titer 96® Aqueous One Solution Cell Proliferation Assay (MTS, Promega, Madison, Wis.) with 1 mM of each compound or clioquinol (PBT1) dissolved in 0.16% DMSO. […] This is a colorimetric method for determining the number of viable cells in proliferation or cytotoxicity assays where the One Solution contains MTS (3-(4,5-dimethylthiazol-2-yl)-5-(3-carboxymethoxyphenyl)-2-(4-sulfophenyl)-2H-tetrazolium), in the presence of phenazine methosulfate (PMS). The MTS compound is bioreduced by cells into a colored formazan product and, as measured by the amount of 490 nm absorbance, is directly proportional to the number of living cells in culture. […] The protective effect of these compounds against H2O2 and hydroxyl radical generated by the Fenton reaction were examined.

[3] = test system: SH-SY5Y neuroblastoma cells; experiment: LIVE/DEAD Viability/Cytotoxicity Assay, hydroxyl radical (Fenton reagent) induced cell death; type: cell-based, human; conditions: 2 hours exposure to Fenton reagent
Description: (§1) The ability of the HK series of multifunctional antioxidant compounds to specifically protect against hydroxyl radical-induced cell death was assessed in both SH-SY5Y neuroblastoma cells and ARPE-19 retinal pigmented epithelial cells using the LIVE/DEAD® Viability/Cytotoxicity Assay (Invitrogen Life Sciences, Grand Island, N.Y.). The cells were seeded into 96-well plates and grown in standard media (1:1 EMEM-F12 media containing 10% FBS for the human SH-SY5Y neuroblastoma cells, or DMEM containing 4% FBS for the human ARPE-19 retinal pigmented epithelial cells), at 37° C. under a 5% CO2 atmosphere until 80% confluence was achieved (ca. 24 hr). The media was then removed, and the cells were washed with PBS. Compounds (HK series and JHX series or antioxidant standards (Hydroquinone (HQ), Trolox (T), Vitamin E (VE), Vitamin C (VC)) dissolved in DMSO (10 μL) were again added to the cells, along with the appropriate media without FPS. Following a 1 hr incubation at 37° C. under a 5% CO2 atmosphere, Fenton reagents (Fe^2+ and hydrogen peroxide dissolved in appropriate media without FBS to give a final concentration of 100 μM) were added to each well, and incubation continued. After 2 hr of incubation with Fenton reagent, the media was removed and the cells were washed with PBS. The cells were stained with 100 μL of the LIVE/DEAD reagent containing calcein AM (AM, 8 μM for NB) and ethidium homodimer-1 (EthD-1, 16 μM for NB) for 1 hr at 37° C. The fluorescence of each well was measured using a fluorescent microplate reader at Ex/Em=494/517 nm (Fsam for LIVE Cells) and Ex/Em=528/617 nm (Fsam for DEAD Cells). The fluorescence of control samples was also measured as follows: Fmax for LIVE Cells (The fluorescence at Ex/Em=494/517 nm in live cells samples labeled with AM only); Fmin for LIVE Cells (The fluorescence at Ex/Em=494/517 nm in live cells samples labeled with EthD-1 only); Fmax for DEAD Cells (The fluorescence at Ex/Em=528/617 nm in dead cells samples labeled with EthD-1 only); Fmin for DEAD Cells (The fluorescence at Ex/Em=528/617 nm in dead cells samples labeled with AM only); Blank 494/517 (The fluorescence at Ex/Em=494/517 nm without dye and cells); Blank 528/617 (The fluorescence at Ex/Em=528/617 nm without dye and cells). For the dead cells control, the cells were incubated with 70% of ethanol for 30 min at 37° C. The percentage of live cells was calculated from the fluorescence readings using the equation
(§2) [formula] The percentage of dead cells was calculated from the fluorescence readings using the equation: […]

[4] = test system: ARPE-19 retinal pigmented epithelial cells; experiment: as above; type: cell-based, human; conditions: ARPE-19, 2 hours exposure to Fenton reagent
Description: as §1, §2

[5] = test system: light-induced retinal damage; conditions: rats; cited from earlier work
diabetic cataract = conditions: diabetic rats; cited from earlier work
radiation cataract = conditions: Long-Evans rats, 15 Gy whole head gamma irradiation; cited from earlier work
[6] = test system: SH-SY5Y neuroblastoma cells; experiment: Protective effect against H2O2 and Fenton-generated hydroxyl radical, MTS cell viability; type: cell-based, human; conditions: versus DMSO control
Description: as §5

[7] = test system: ARPE-19 retinal pigmented epithelial cells; experiment: Zinquin analysis of cellular labile zinc after exposure to Aβ1-42/Zn complex; type: cell-based, human; conditions: ARPE-19, 10 μM drug
Description: (§3) The ability of MFAOs to release zinc from amyloid beta/zinc complex was investigated using […] from American Peptide Company, Inc. (Vista, Calif.). The Aβ1-42/Zn complex was prepared as follow. ZnSO4 solution (200 μM) and Aβ1-42 (200 μM) were mixed together and incubated at 37° C. After 48 hr incubation, the mixture was centrifuged at 14000×g, 3 min to pellet the aggregated Aβ1-42. The aggregated Aβ1-42 was then resuspended in water or 200 μM of drugs. The complex was diluted with Hank's Balanced Saline Solution (HBSS) to give a final 10 μM concentration for each component. This complex was then used in the following studies employing human SH-SY5Y neuroblastoma and ARPE-19 pigmented epithelial cells. The studies were repeated 2-4 times.
(§4) Human SH-SY5Y neuroblastoma cells were seeded into 8-well microscope plates (BD Falcon, 800μ-slides), and the cells were incubated in EMEM-F12 media containing 10% FBS at 37° C. under a 5% CO2 atmosphere. Once the cells were approximately 80% confluent in each well, the media was removed, and the cells were washed with phosphate buffered saline (PBS). […] The zinquin fluorescence was then measured in the fixed cells by confocal fluorescence microscopy using a DAPI (4′,6-diamidino-2-phenylindole) DAPI filter set to assess the cellular compartmentalization of zinc. […]

[8] = test system: SH-SY5Y neuroblastoma cells; experiment: as above; type: cell-based, human; conditions: 10 μM drug
Description: as §3, §4

ARPE-19 RPE cells = experiment: Mitochondrial viability/toxicity, rhodamine 123 staining with or without MnCl2; type: cell-based, human; conditions: ARPE-19, 1 mM drug, 1 mM MnCl2
[9] = test system: SH-SY5Y neuroblastoma cells; experiment: as above; type: cell-based, human; conditions: 1 mM drug, 1 mM MnCl2
Description: The laser dye rhodamine 123 is shown to be a specific probe for the localization of mitochondria in living cells. Because of its selectivity for mitochondria, this stain can be used to probe alterations in mitochondria induced by drugs. Therefore, studies were conducted to determine whether MFAOs can adversely alter mitochondrial function through their ability chelate transition metals.
Human SH-SY5Y neuroblastoma cells were seeded into 8-well microscope plates (BD Falcon, 800μ-slides), and the cells were incubated in EMEM-F12 media containing 10% FBS at 37° C. under a 5% CO2 atmosphere. Once the cells were approximately 80% confluent in each well, the media was removed and the cells were washed with PBS. The cells were then pre-incubated for 1 hour at 37° C. under a 5% CO2 atmosphere with 200 μL of HBSS medium without FBS containing drug JHX-1, -4, -5, -8, HK-2, -4, -9, -11, or Clioquinol dissolved in DMSO, so that final drug concentrations of 1 mM in 4% DMSO were achieved. Then MnCl2 was added to the appropriate cells groups to give a final concentration of 1 mM, and the groups were cultured for an additional 2 hours. After the […] exposure to manganese, the media was removed and the cells were washed with PBS. The cells were then stained with 100 μL of the fluorescent dye rhodamine 123 (Rh123) (20 μM) and Hoechst 33342 (8 μM) per well at 37° C., 5% CO2 for 30 min. […]

Compound	reduction of superoxide radical [1]	decrease in 24 hr cell viability compared to DMSO treated cells [2]	other results
O=C1CCC(=O)N1c1ncccn1 [HK-1, 1-(2-pyrimidyl)pyrrolidine-2,5-dione]	did not	–	–
O=C1CCC(=O)N1c1ncc(O)cn1 [HK-2, 1-(5-hydroxy-2-pyrimidyl)pyrrolidine-2,5-dione]	–	approximately 20%	–
COc1cc(OC)nc(N2C(=O)CCC2=O)n1 [HK-3, 1-(4,6-dimethoxy-2-pyrimidyl)pyrrolidine-2,5-dione]	did not	–	–
O=C1CCCC(=O)N1c1ncccn1 [HK-5, 1-(2-pyrimidyl)piperidine-2,6-dione]	did not	–	–
O=C1CCCC(=O)N1c1ncc(O)cn1 [HK-6, 1-(5-hydroxy-2-pyrimidyl)piperidine-2,6-dione]	–	approximately 20%	–
COc1cc(OC)nc(N2C(=O)CCCC2=O)n1 [HK-7, 1-(4,6-dimethoxy-2-pyrimidyl)piperidine-2,6-dione]	did not	–	–
COc1nc(N2C(=O)CCCC2=O)nc(OC)c1O [HK-8, 1-(4,6-dimethoxy-5-hydroxy-2-pyrimidyl)piperidine-2,6-dione]	–	30%	–
c1cnc(N2CCCC2)nc1 [HK-9, 2-(pyrrolidine-1-yl)pyrimidine]	no effect	–	protection against hydroxyl radicals (live/dead cells) [3]: no effect
Oc1cnc(N2CCCC2)nc1 [HK-10, 5-hydroxy-2-(pyrrolidine-1-yl)pyrimidine]	demonstrated protection	–	protection against hydroxyl radical (live/dead cells) [4]: dose-dependent protection
COc1cc(OC)nc(N2CCCC2)n1 [HK-11, 4,6-dimethoxy-2-(pyrrolidine-1-yl)pyrimidine]	no effect	–	protection against hydroxyl radicals (live/dead cells) [3]: no effect
COc1nc(N2CCCC2)nc(OC)c1O [HK-12, 5-hydroxy-4,6-dimethoxy-2-(pyrrolidine-1-yl)pyrimidine]	demonstrated protection	–	protection against hydroxyl radical (live/dead cells) [4]: dose-dependent protection
Oc1cnc(N2CCCCC2)nc1 [HK-14, 5-hydroxy-2-(piperidine-1-yl)pyrimidine]	demonstrated protection	–	protection against hydroxyl radical (live/dead cells) [4]: dose-dependent protection
COc1nc(N2CCCCC2)nc(OC)c1O [HK-16, 5-hydroxy-4,6-dimethoxy-2-(piperidine-1-yl)pyrimidine]	demonstrated protection	–	protection against hydroxyl radical (live/dead cells) [4]: dose-dependent protection
CN(C)S(=O)(=O)N1CC(=O)N(c2ncc(O)cn2)C(=O)C1 [JHX-4]	–	–	protection against light-induced retinal damage [5]: protects rats against light-induced retinal damage; progression of cataracts (diabetic cataract): delayed the progression of cataracts; cataract formation after irradiation (radiation cataract): significantly delayed cataract formation
Cc1c(C)c2c(c(C)c1O)CCC(C)(C(=O)O)O2 (centres unmarked) [Trolox, reference compound]	–	approximately 20%	–
Oc1c(I)cc(Cl)c2cccnc12 [clioquinol]	–	50%	cell viability in the Fenton reaction [6]: lower than DMSO control; labile zinc (zinquin staining) in presence of aggregated Aβ1-42/Zn complex [7]: maintain labile zinc levels; labile zinc (zinquin staining) in presence of aggregated Aβ1-42/Zn complex [8]: maintain labile zinc levels; loss of rhodamine 123 staining after MnCl2 (ARPE-19 RPE cells): not observed; loss of rhodamine 123 staining after MnCl2 [9]: not observed
